Laboratory results reported in US4582827A, “Pesticidal diphenylaziridines” (priority 1983, dated 1986).

Legend:
[1] = tested on: tobacco hornworm (Manduca sexta) larvae; experiment: Tobacco hornworm growth and developmental responses to feeding on diets containing the compounds; format: in vivo; settings: for oral activity: diet, Example 2; for larval mortality (acute toxicity): in 24-72 hours
Description: The compounds produced and described in Example 1 were then tested for pesticidal activity against the tobacco hornworm (Manduca sexta). The screening procedure for these tests began with the larval stage and continued through the pupal and adult stages and finally evaluated egg production. The studies thus permitted the evaluation of the effects of the compounds over several subsequent developmental stages in the total life cycle of the insect, giving estimates of acute toxicity (insecticidalor larvicidal activity) as well as prolonged or delayed effects on development (growth regulation) and reproduction (chemosterilization). The latter are of special importance in conjunction with the integrated pest management approach to insect control.
The test compounds were incorporated into the artificial diet of tobacco hornworm larvae and their subsequent growth and developmental responses were monitored using the following parameters: larval mortality including determination of LD50 values, rate of larval development and weight gain, percent pupation, pupal weight and degree of deformities, percent adult emergence and measures of reproductive capacity such as the number of developed ooctyes, fecundity and fertility. The protocol for the screening tests has been developed over a number of years by Dahlman et al., Comp. Biochem. Physiol. 51A, 33, (1975); Comp. Biochem. Physiol., 52A, 105 (1975); Ent. Exp. et Appl., 22, 123 (1977); Palumbo and D. L. Dahlman, J. Econ. Entomol. 71, 674 (1978); D. L. Dahlman, Ent. Exp. et Appl., 24, 327 (1978).
Each treatment used 15 newly ecdysed fifth-instar larvae. Death of larvae within a few hours to several days of initial exposure was considered to be acute toxicity. However, the compounds may reduce the maximum size attained by larvae and/or may retard growth so that larvae require additional time to attain their maximum size. Developmental parameters subsequent to the feeding stage also may be affected. […] Mortality may occur in the pupal stage or emerging adults may have wrinkled wings or other deformities. The number of eggs produced by treated females may be reduced and/or unfertile. Although acute toxicity is desirable in the control of any insect, the delayed effects which result in poor survival and reduced reproductive capacity are significant factors in the long-range program of pest management systems.
Continuous cultures of M. sexta are maintained according to the procedures of Yamamoto, J. Econ. Entomol., 62, p. 1427 (1969). Ingredients of the diet formulation include sugar, casein, wheat germ oil, cholesterol, salt mixture, yeast, vitamins, antioxidants and fungal inhibitors, such as ascorbic acid, sorbic acid, formaldehyde and methyl-p-benzoate. All are incorporated into a liquid agar base which, when poured into holding pans, solidifies to form an adequate substrate upon which the insect larvae feed. Nearly any test material can be uniformly incorporated into such a diet. Thus, exposure to experimental compounds can be evaluated during all or any part of the larval stage. In addition, chronic or long-term effects in subsequent life stages can also be monitored.
The results from these studies, in which the 1,2-diphenylaziridines of Example 1 were incorporated singly into the diet of M. sexta at a concentration of 5 mM are presented in the following Table I.

[2] = tested on: tobacco hornworm larvae (newly ecdysed fifth-instar); experiment: Topical application to tobacco hornworm larvae; format: in vivo, Manduca sexta
Description: The test compounds were dissolved either in acetone or hexane and applied to the integument of the test insect with a micro applicator. Newly ecdysed fifth-instar tobacco hornworm larvae weighing between 1-1.5 g were used and toxicity data were obtained in the same way as previously described.

[3] = tested on: H. virescens; experiment: Incorporation into H. virescens diet; format: in vivo, Heliothis virescens; settings: as much as 20 mM in diet
Description: Compounds 1, 10, 11, 13 and 14 were incorporated into H. virescens diet in the same manner as M. Sexta. Diets containing as much as 20 mM of each compound had little effect on larval development time, pupal weight or time to adult emergence.

[4] = tested on: Salmonella typhimurium strains TA 98, TA 100, TA 1535, TA 1537, TA 1538, TA 1978; experiment: Ames assay (spot test), revertant colonies; format: cell-based; settings: for Mean number of revertant colonies per plate, TA 98 +S9: strain TA 98, +S9; for Mean number of revertant colonies per plate, TA 98 -S9: strain TA 98, -S9; for Mean number of revertant colonies per plate, TA 100 +S9: strain TA 100, +S9; for Mean number of revertant colonies per plate, TA 100 -S9: strain TA 100, -S9; for Mean number of revertant colonies per plate, TA 1535 +S9: strain TA 1535, +S9; for Mean number of revertant colonies per plate, TA 1535 -S9: strain TA 1535, -S9; for Mean number of revertant colonies per plate, TA 1537 +S9: strain TA 1537, +S9; for Mean number of revertant colonies per plate, TA 1537 -S9: strain TA 1537, -S9; for Mean number of revertant colonies per plate, TA 1538 +S9: strain TA 1538, +S9; for Mean number of revertant colonies per plate, TA 1538 -S9: strain TA 1538, -S9; for Mean number of revertant colonies per plate, TA 1978 +S9: strain TA 1978, +S9; for Mean number of revertant colonies per plate, TA 1978 -S9: strain TA 1978, -S9
Description: This means that aziridine compounds, 1, 10, or 11, will not cause mutations in DNA arising from potential changes in frame shift and/or base pairing. Compounds 1, 10 and 11 were tested for mutagenic properties using the following experimental procedure.
Potential mutagenic and carcinogenic properties of the compounds were evaluated with standard Ames assay procedures (Ames et al, "Mutation Res.", 31, p. 347, 1975). This assay used strains of Salmonella typhimurium selected for sensitivity and specificity in being reverted from a histidine requirement back to prototrophy by a wide variety of mutagens. Potential changes in frameshift were evaluated using strains TA 98, TA 1537 and TA 1538, while changes in base pairing were detected using strains TA 100 and TA 1535. In addition, strain TA 1978 was used, in combination with TA 1538, to evaluate whether the agent killed bacteria by damage to DNA that could be repaired by this strain. Initially, the compounds were screened using the spot test, in which 1000 μgm of material dissolved in 10 μl of DNSO was applied to the middle of the plate.
Dose-response tests were not performed because the results were negative. All the tests were carried out in the presence and absence of an S9 rat liver preparation and contained a positive control (2-acetylaminofluorene,AAF) and a negative control (DMSO).

## FC(F)(F)c1ccc(N2CC2c2ccccc2Cl)cc1 (centres unmarked) [Compound 14]
[1]; 1 mM in diet
  % Adult Emergence: 100%
  % Adults: 93%
  % Malformed Adults: 36%
  % Pupation: 93%
  Days to Max Wt: 5.8 ± .1 days
  Max Larval Wt: 9.20 g
  Mean No. of Eggs: 83 ± 13
  No. of female Adults: 9
  Total No. of Adults: 14
[1]; 2.5 mM in diet
  % Adult Emergence: 8%
  % Adults: 7%
  % Malformed Adults: 100%
  % Pupation: 93%
  Days to Max Wt: 6.6 ± 0.2 days
  Max Larval Wt: 8.03 g
  Mean No. of Eggs: 0
  No. of female Adults: 1
  Total No. of Adults: 1
  malformed adults: a large percentage
  maximum larval weight and mean number of eggs: reduced maximum larval weight and the mean number of eggs
[1]; 5 mM in diet
  larval death (words in table): ALL DEAD WITHIN 3 DAYS
  larval mortality: all or nearly all larvae died
  symptoms of larvae: extreme agitation of larvae, oral and anal expulsion of fluids and ultimately, death
  time until all larvae dead: ≥ 48 h
[1]; Manduca sexta, po, 2.5 mM in diet, read-out: pupal mortality
  mortality at 2500 µM: 85%
[1]
  oral activity: good oral activity
[1]; summary of Tables I and II
  larval mortality (acute toxicity): 100%
  pupal mortality: caused pupal mortality
  time to 100% larval mortality: 24 to 72 h
[2]; 2000 μg/larvae (1600 ppm)
  topical effect: ineffective
[3]
  effect on larval development time, pupal weight or time to adult emergence: little effect

## CC(=O)Nc1ccc2c(c1)Cc1ccccc1-2 [AAF, 2-acetylaminofluorene, reference compound]
[4]
  Mean number of revertant colonies per plate, TA 98 +S9: 284.7 colonies per plate
  Mean number of revertant colonies per plate, TA 98 -S9: 32.7 colonies per plate
  Mean number of revertant colonies per plate, TA 100 +S9: 78.0 colonies per plate
  Mean number of revertant colonies per plate, TA 100 -S9: 25.3 colonies per plate
  Mean number of revertant colonies per plate, TA 1535 +S9: 19.7 colonies per plate
  Mean number of revertant colonies per plate, TA 1535 -S9: 15.7 colonies per plate
  Mean number of revertant colonies per plate, TA 1537 +S9: 14.7 colonies per plate
  Mean number of revertant colonies per plate, TA 1537 -S9: 7.7 colonies per plate
  Mean number of revertant colonies per plate, TA 1538 +S9: 313.7 colonies per plate
  Mean number of revertant colonies per plate, TA 1538 -S9: 14.7 colonies per plate
  Mean number of revertant colonies per plate, TA 1978 +S9: 358.3 colonies per plate
  Mean number of revertant colonies per plate, TA 1978 -S9: 196.3 colonies per plate

## Clc1ccc(N2CC2c2ccccc2Cl)cc1 (centres unmarked) [Compound 11]
[4]
  Mean number of revertant colonies per plate, TA 98 +S9: 44.7 colonies per plate
  Mean number of revertant colonies per plate, TA 98 -S9: 27.3 colonies per plate
  Mean number of revertant colonies per plate, TA 100 +S9: 58.3 colonies per plate
  Mean number of revertant colonies per plate, TA 100 -S9: 28.0 colonies per plate
  Mean number of revertant colonies per plate, TA 1535 +S9: 15.3 colonies per plate
  Mean number of revertant colonies per plate, TA 1535 -S9: 16.3 colonies per plate
  Mean number of revertant colonies per plate, TA 1537 +S9: 13.7 colonies per plate
  Mean number of revertant colonies per plate, TA 1537 -S9: 9.7 colonies per plate
  Mean number of revertant colonies per plate, TA 1538 +S9: 26.0 colonies per plate
  Mean number of revertant colonies per plate, TA 1538 -S9: 13.3 colonies per plate
  Mean number of revertant colonies per plate, TA 1978 +S9: 196.0 colonies per plate
  Mean number of revertant colonies per plate, TA 1978 -S9: 209.7 colonies per plate
[4]; with and without S9 / mammalian liver enzymes
  mutagenicity: not mutagenic
[1]; 1 mM in diet
  % Adult Emergence: 100%
  % Adults: 100%
  % Malformed Adults: 7%
  % Pupation: 100%
  Days to Max Wt: 5.9 ± .1 days
  Max Larval Wt: 8.29 g
  Mean No. of Eggs: 74 ± 22
  No. of female Adults: 4
  Total No. of Adults: 14
  larval weight: a slight reduction in larval weight
[1]; 2.5 mM in diet
  % Adult Emergence: 100%
  % Adults: 60%
  % Malformed Adults: 0%
  % Pupation: 60%
  Days to Max Wt: 7.7 ± 0.6 days
  Max Larval Wt: 6.77 g
  Mean No. of Eggs: 15 ± 7
  No. of female Adults: 7
  Total No. of Adults: 9
  maximum larval weight and mean number of eggs: reduced maximum larval weight and the mean number of eggs
  percent pupation: lowered the percent pupation
[1]; 5 mM in diet
  larval death (words in table): ALL DEAD WITHIN 24 HR OF START OF TEST
  larval mortality: all or nearly all larvae died
  symptoms of larvae: extreme agitation of larvae, oral and anal expulsion of fluids and ultimately, death
  time until all larvae dead: ≤ 24 h
[1]
  oral activity: good oral activity
[1]; summary of Tables I and II
  larval mortality (acute toxicity): 100%
  time to 100% larval mortality: 24 to 72 h
[2]; 500 μg/larva (400 ppm), within 48 hr
  larvae killed: 80%
[2]; 250 ppm topical
  developmental effects: increased larval developmental time, reduced maximum weight and fewer numbers of eggs
[2]; Manduca sexta, 250 ppm topical, read-out: larval mortality
  mortality at 250 ppm, 250 µg/g: 30%
[2]; topical
  topical activity against the tobacco hornworm (comparison in words): less active than Compound 13
[3]
  effect on larval development time, pupal weight or time to adult emergence: little effect

## O=[N+]([O-])c1cccc(N2CC2c2ccccc2[N+](=O)[O-])c1 (centres unmarked) [Compound 3]
[1]; 5 mM in diet
  % Adult Emergence: 80%
  % Malformed Adults: 8%
  % Pupation: 100%
  Days to Max Wt: 5.2 ± .1 days
  Max Larval Wt: 9.21 ± .24 g
  Mean No. of Eggs: 97 ± 14
  No. of female Adults: 9
[1]; 5 mM in diet, all tests began with 15 larvae
  Total No. of Adults: 12
[1]; summary of Tables I and II
  effects on tobacco hornworm development: had no effect
